# Tests used:
# [1] = Oral (per os) toxicity (LD50); conditions: in vivo
# DOCA-Na. rat = experiment: Subacute antihypertensive activity in the DOCA-Na rat versus bromolasalocid (AHR, onset, duration); assay type: in vivo
# Description: (§1) A test was conducted for antihypertensive activity in the DOCA Na rat. DOCA rats weighing 170 to 210 grams are used in the test. DOCA Na Hypertension is induced by unilateral nephrectomy followed by subcutaneous implantation of a 25 mg. desoxycorticosterone (DOCA) pellet. Animals are placed in individual cages receiving 0.9% sodium chloride solution to drink and rat chow diet ad libitum. Two weeks are allowed to elapse from the time of surgery for development of hypertension, i.e., systolic blood pressure of at least 150 mmHg.
# (§2) Systolic blood pressure and heart rate are measured indirectly from the tail pressure pulse of unanesthetized rats, using a pneumatic pulse transducer. Control readings are taken prior to drug and post drug readings are taken at 1, 3, 6 and 24 hours.
# The experimental results are represented as absolute values. Drug-related alterations in systolic blood pressure are expressed as percentage change by comparing control absolute values with post drug absolute values. […] However, the reduction in blood pressure must show mathematical significance ([…]).
# Using bromolasalocid as a standard for comparison, a number of the novel episalinomycin of the present invention was tested for antihypertensive activity. The tests were conducted utilizing single oral dosages in the DOCA-Na. rat over a five-day period with dosing discontinued thereafter. Blood pressure monitoring was carried out for the five-day period and daily after cessation of dosing until blood pressure returned to predrug levels. […] The antihypertensive activity expressed as AHR (Subacute antihypertensive ratio) was calculated using bromolasalocid as the standard reference (Table III).
# Paecilomyces varioti = experiment: Antimicrobial spectrum, agar diffusion technique; assay type: cell-based
# Description: (§3) M.I.C. Values in mcg/ml utilizing the
# (§4) Test Organism agar diffusion technique
# Bacillus sp. TA = experiment: Antimicrobial spectrum, agar diffusion technique; assay type: cell-based
# Description: as §3, §4
# Staphylococcus aureus = experiment: Antimicrobial spectrum, agar diffusion technique; assay type: cell-based
# Description: as §3, §4
# Candida albicans = experiment: Antimicrobial spectrum, agar diffusion technique; assay type: cell-based
# Description: as §3, §4
# Sarcina lutea = experiment: Antimicrobial spectrum, agar diffusion technique; assay type: cell-based; conditions: Micrococcus luteus
# Description: as §3, §4
# Bacillus sp. E = experiment: Antimicrobial spectrum, agar diffusion technique; assay type: cell-based
# Description: as §3, §4
# Mycobacterium phlei = experiment: Antimicrobial spectrum, agar diffusion technique; assay type: cell-based; conditions: Mycolicibacterium phlei
# Description: as §3, §4
# Bacillus subtilis = experiment: Antimicrobial spectrum, agar diffusion technique; assay type: cell-based
# Description: as §3, §4
# Actinomyces cellulosae = experiment: Antimicrobial spectrum, agar diffusion technique; assay type: cell-based; conditions: Streptomyces cellulosae
# Description: as §3, §4
# Bacillus megaterium = experiment: Antimicrobial spectrum, agar diffusion technique; assay type: cell-based; conditions: Priestia megaterium
# Description: as §3, §4
# DOCA Na rat = experiment: Antihypertensive activity in the DOCA Na rat, five-day oral dosing, systolic blood pressure; assay type: in vivo
# Description: as §1, §2
# The experimental results are represented as absolute values. Drug-related alterations in systolic blood pressure are expressed as percentage change by comparing control absolute values with post drug absolute values. Compounds are considered active when about a 15% or greater reduction in blood pressure is obtained. However, the reduction in blood pressure must show mathematical significance ([…]).
# A derivative of the polyether ionophore, lasalocid, i.e., the bromo derivative of lasalocid, was tested in the above screen. The compound was orally administered for a five-day period by intubation and thereafter dosing was discontinued but blood pressure monitoring was continued. The following table illustrates the results obtained utilizing bromolasalocid as the test drug.
# [2] = daily oral dose 1/100 of LD50 up to 10 mg/kg/day, five days
smiles,measurement,setting,value
"CCC(C(=O)O)C1CCC(C)C(C(C)C(O)C(C)C(=O)C(CC)C2OC3(C=CCC4(CCC(C)(C5CCC(O)(CC)C(C)O5)O4)O3)C(C)CC2C)O1 (stereo not drawn) [Deoxy-(0-8)-epi-17-salinomycin, 6-[5-[2'-(5""-Ethyltetrahydro-5""-hydroxy-6""-methyl-(2""H)-pyran-2""-yl]-2' ,12' ,14'-trimethyl-1',10' ,15'-trioxadispiro[4.3.5.1]pentadec-7'-en-11'-yl]-5-ethyl-1,3-dimethyl-2-hydroxy-4-oxopentyl]-alpha-ethyl-tetrahydro-5-methyl-(2H)-pyran-2-acetic acid]",LD50,[1],> 1000 mg/kg
same,antihypertensive activity (in words),"DOCA-Na. rat; DOCA-Na rat, oral, five-day period",exhibited antihypertensive activity
same,Duration of Effect,DOCA-Na. rat; [2],4 days
same,Onset to Max. Response,DOCA-Na. rat; [2],3 days
same,MIC,Paecilomyces varioti,15.7 µg/mL
same,MIC,Bacillus sp. TA,6.25 µg/mL
same,MIC,Staphylococcus aureus,25 µg/mL
same,MIC,Candida albicans,2000 µg/mL
same,MIC,Sarcina lutea,25 µg/mL
same,MIC,Bacillus sp. E,6.25 µg/mL
same,MIC,Mycobacterium phlei,500 µg/mL
same,MIC,Bacillus subtilis,6.25 µg/mL
same,MIC,Actinomyces cellulosae,250 µg/mL
same,MIC,Bacillus megaterium,6.25 µg/mL
CC[C@@H](C(=O)[C@@H](C)[C@@H](O)[C@H](C)CCc1c(Br)cc(C)c(O)c1C(=O)O)[C@H]1O[C@](CC)([C@H]2CC[C@](O)(CC)[C@H](C)O2)C[C@@H]1C [Bromolasalocid],Average Systolic Blood Pressure Per Group,"DOCA Na rat; 5 mg/kg per day oral for 5 days, Day 1 pm, pre-drug control (Day 1 am) 209",193 mmHg
same,Average Systolic Blood Pressure Per Group,"DOCA Na rat; 5 mg/kg per day oral for 5 days, Day 2 am, pre-drug control 209",206 mmHg
same,Average Systolic Blood Pressure Per Group,"DOCA Na rat; 5 mg/kg per day oral for 5 days, Day 2 pm, pre-drug control 209",194 mmHg
same,Average Systolic Blood Pressure Per Group,"DOCA Na rat; 5 mg/kg per day oral for 5 days, Day 3 am, pre-drug control 209",204 mmHg
same,Average Systolic Blood Pressure Per Group,"DOCA Na rat; 5 mg/kg per day oral for 5 days, Day 3 pm, pre-drug control 209",191 mmHg
same,Average Systolic Blood Pressure Per Group,"DOCA Na rat; 5 mg/kg per day oral for 5 days, Day 4 am, pre-drug control 209",206 mmHg
same,Average Systolic Blood Pressure Per Group,"DOCA Na rat; 5 mg/kg per day oral for 5 days, Day 4 pm, pre-drug control 209",201 mmHg
same,Average Systolic Blood Pressure Per Group,"DOCA Na rat; 5 mg/kg per day oral for 5 days, Day 5 am, pre-drug control 209",197 mmHg
same,Average Systolic Blood Pressure Per Group,"DOCA Na rat; 5 mg/kg per day oral for 5 days, Day 5 pm, pre-drug control 209",196 mmHg
same,Average Systolic Blood Pressure Per Group,"DOCA Na rat; 10 mg/kg per day oral for 5 days, Day 1 pm, p < .05, pre-drug control (Day 1 am) 217",192 mmHg
same,Average Systolic Blood Pressure Per Group,"DOCA Na rat; 10 mg/kg per day oral for 5 days, Day 2 am, p < .05, pre-drug control 217",181 mmHg
same,Average Systolic Blood Pressure Per Group,"DOCA Na rat; 10 mg/kg per day oral for 5 days, Day 2 pm, p < .05, pre-drug control 217",166 mmHg
same,Average Systolic Blood Pressure Per Group,"DOCA Na rat; 10 mg/kg per day oral for 5 days, Day 3 am, p < .05, pre-drug control 217",171 mmHg
same,Average Systolic Blood Pressure Per Group,"DOCA Na rat; 10 mg/kg per day oral for 5 days, Day 3 pm, p < .05, pre-drug control 217",163 mmHg
same,Average Systolic Blood Pressure Per Group,"DOCA Na rat; 10 mg/kg per day oral for 5 days, Day 4 am, p < .05, pre-drug control 217",173 mmHg
same,Average Systolic Blood Pressure Per Group,"DOCA Na rat; 10 mg/kg per day oral for 5 days, Day 4 pm, p < .05, pre-drug control 217",157 mmHg
same,Average Systolic Blood Pressure Per Group,"DOCA Na rat; 10 mg/kg per day oral for 5 days, Day 5 am, p < .05, pre-drug control 217",176 mmHg
same,Average Systolic Blood Pressure Per Group,"DOCA Na rat; 10 mg/kg per day oral for 5 days, Day 5 pm, p < .05, pre-drug control 217",166 mmHg
same,Period blood pressure remained below control after drug dosing,DOCA Na rat; after dosing for the first five consecutive days,10 days
